pEC50, pIC50: −log10 of the molar value. Read-outs that look alike come from different tables or passages of the source.
How the values were obtained:
Assay in all cases: cells
[1] = system: endothelial tube formation in co-cultures of ECFCs and ADSCs treated with VEGF; format: cell-based, human
[2] = system: nuclear β-catenin in C2C12 cells; format: cell-based
INS-1E cells = format: cell-based, rat
NCI-H716 cells = format: cell-based, Human
HeLa cells = format: cell-based; details: for pEC50: read-out: CellCycle G2/M
DLD-1 = format: cell-based
SW480 = format: cell-based
[3] = system: HCT116 cells treated with a GSK3β inhibitor; format: cell-based
Colo320 = format: cell-based; details: Homo sapiens, COLO 320; read-out: Basal_Viability ATP Colo 320
RKO = format: cell-based; details: Homo sapiens, RKO; read-out: Basal_Viability ATP RKO
HCT116 = format: cell-based
[4] = Homo sapiens, IC50 / EC50; endothelial tube area, ADSC/ECFC co-culture; read-out: Anti-Angiogenesis
[5] = Rattus norvegicus, IC50 / EC50, INS-1E, read-out: Insulin Secretion
[6] = Homo sapiens, IC50 / EC50, NCI-H716, read-out: GLP 1 Secretion
[7] = Homo sapiens, HCT-116, GSK3b inhibitor pretreated, read-out: GSK3b inh pretreated_Viability ATP HCT116
[8] = Homo sapiens; read-out: Anti-Angiogenesis
[9] = Rattus norvegicus, INS-1E, read-out: Insulin Secretion
[10] = Homo sapiens, NCI-H716, read-out: GLP 1 Secretion
[11] = Homo sapiens, HeLa, S2 Table, HeLa, 20 = no response at highest concentration
[12] = Homo sapiens, DLD-1, basal, DLD-1, read-out: Basal_Viability ATP DLD-1
[13] = Homo sapiens, SW480, basal, SW480, read-out: Basal_Viability ATP SW480
[14] = Homo sapiens, HCT-116, basal, HCT116, read-out: Basal_Viability ATP HCT116
[15] = Homo sapiens, HCT-116, HCT116 pretreated with GSK3b inhibitor, read-out: GSK3b inh pretreated_Viability ATP HCT116
[16] = Homo sapiens; read-out: Anti-Angio IC50
[17] = Mus musculus, C2C12, Table 2, C2C12, […], 20 / 20.1 coded, read-out: Wnt pot. EC50
[18] = Rattus norvegicus, INS-1E, read-out: Ins. sec. EC50
[19] = Homo sapiens, NCI-H716, read-out: GLP1 sec. EC50
[20] = Homo sapiens, DLD-1, 72 h, Table 2, 72 h, Cell TiterGlo, non-adherent, 20 coded, read-out: DLD-1 viab. IC50
[21] = Homo sapiens, SW480, 72 h, Table 2, 72 h, Cell TiterGlo, non-adherent, 20 coded, read-out: SW480 viab. IC50
[22] = Homo sapiens, HCT-116, 72 h, read-out: HCT-116 viab. IC50, Table 2, basal, 72 h, Cell TiterGlo, non-adherent, 20 coded
[23] = Homo sapiens, HeLa, IC50 / EC50, HeLa
[24] = Homo sapiens, DLD-1, basal, read-out: Basal_Viability ATP DLD-1
[25] = Homo sapiens, SW480, basal, read-out: Basal_Viability ATP SW480
[26] = Homo sapiens, HCT-116, basal, read-out: Basal_Viability ATP HCT116
[27] = Homo sapiens, HCT-116, read-out: HCT-116 (GSK3β) viab. IC50, Table 2, GSK3β inhibitor LY2090314 20 nM, 72 h, Cell TiterGlo, 20 coded

COc1cccc2c1C(=O)c1c(O)c3c(c(O)c1C2=O)C[C@@](O)(C(=O)CO)C[C@@H]3O[C@H]1C[C@H](N2CCO[C@H](OC)C2)[C@H](O)[C@H](C)O1 [nemorubicin]
pIC50 [1, 4]: 8.52
pEC50 ([2]; Mus musculus, IC50 / EC50, C2C12 beta-catenin translocation, read-out: Wnt Pathway): 7.87
pEC50 (INS-1E cells; [5]): < 5.00
pEC50 (NCI-H716 cells; [6]): < 5.00
pEC50 (HeLa cells; Homo sapiens, IC50 / EC50, HeLa): < 5.00
pIC50 (DLD-1; Homo sapiens, DLD-1, read-out: Basal_Viability ATP DLD-1): 9.00
pIC50 (SW480; Homo sapiens, SW480, read-out: Basal_Viability ATP SW480): 9.00
pIC50 [3, 7]: 9.00
pIC50 (Colo320): 9.00
pIC50 (RKO): 9.00

CC(=O)Oc1ccccc1C(=O)Nc1ncc([N+](=O)[O-])s1 [nitazoxanide]
pIC50 [1, 8]: 5.69
pEC50 ([2]; Mus musculus, C2C12, S2 Table, module primary assay, 20 / 20.1 codes per legend, read-out: Wnt Pathway): < 5.00
pEC50 (INS-1E cells; [9]): < 5.00
pEC50 (NCI-H716 cells; [10]): < 5.00
pEC50 (HeLa cells; [11]): < 5.00
pIC50 (DLD-1; [12]): 5.51
pIC50 (SW480; [13]): 5.52
pIC50 (HCT116; [14]): 5.55
pIC50 [3, 15]: 5.61

CCCCc1ccc2[nH]c(NC(=O)OC)nc2c1 [parbendazole]
pIC50 [1, 8]: 7.28
pEC50 ([2]; Mus musculus, C2C12, read-out: Wnt Pathway): 7.47
pEC50 (INS-1E cells; [9]): < 5.00
pEC50 (NCI-H716 cells; [10]): < 5.00
pEC50 (HeLa cells; [11]): 7.97
pIC50 (DLD-1; [12]): 6.19
pIC50 (SW480; [13]): 5.70
pIC50 (HCT116; [14]): 6.93
pIC50 [3, 15]: 6.98

Cc1ccc(Nc2nccc(N(C)c3ccc4c(C)n(C)nc4c3)n2)cc1S(N)(=O)=O [pazopanib, reference compound]
pIC50 [1, 16]: 7.33
pIC50 [1, 8]: 7.33
activity in the Wnt potentiation module (in words) [2]: None of these agents, however, possessed appreciable activity
pEC50 [2, 17]: < 5.00
pEC50 (INS-1E cells; [18]): < 5.00
pEC50 (NCI-H716 cells; [19]): < 5.00
pEC50 (HeLa cells; [11]): < 5.00
pIC50 (DLD-1; [20]): < 4.70
pIC50 (SW480; [21]): 5.24
pIC50 (SW480; [13]): 5.25
pIC50 (HCT116; [22]): < 4.70
pIC50 ([3]; Homo sapiens, HCT-116, 72 h, read-out: HCT-116 (GSK3β) viab. IC50): < 4.70

NCCNc1ccc(NCCN)c2c1C(=O)c1ccncc1C2=O [pixantrone]
pIC50 [1, 4]: 7.33
pEC50 ([2]; Mus musculus, C2C12, IC50 / EC50, C2C12 beta-catenin translocation, read-out: Wnt Pathway): < 5.00
pEC50 (INS-1E cells; [5]): < 5.00
pEC50 (NCI-H716 cells; [6]): < 5.00
pEC50 (HeLa cells; [23]): 7.32
pIC50 (DLD-1; [24]): < 4.70
pIC50 (SW480; [25]): < 4.70
pIC50 (HCT116; [26]): < 4.70
pIC50 [3, 7]: 4.83

CC(C)=CCC/C(C)=C/CC/C(C)=C/C(=O)OCC(=O)[C@@]1(O)CC[C@H]2[C@@H]3CCC4=CC(=O)C=C[C@]4(C)[C@H]3[C@@H](O)C[C@@]21C [prednisolone farnesil]
pIC50 ([1]; read-out: Anti-Angiogenesis): 5.48
pEC50 ([2]; read-out: Wnt Pathway): < 5.00
pEC50 (INS-1E cells; read-out: Insulin Secretion): < 5.00
pEC50 (NCI-H716 cells; read-out: GLP 1 Secretion): < 5.00
pEC50 (HeLa cells): < 5.00
pIC50 (DLD-1; read-out: Basal_Viability ATP DLD-1): 5.10
pIC50 (SW480; read-out: Basal_Viability ATP SW480): 5.09
pIC50 (HCT116; read-out: Basal_Viability ATP HCT116): 5.24
pIC50 ([3]; read-out: GSK3b inh pretreated_Viability ATP HCT116): 5.14

CCN(CC)CCNC(=O)c1c(C)[nH]c(/C=C2\C(=O)Nc3ccc(F)cc32)c1C [sunitinib, reference compound]
pIC50 ([1]; Homo sapiens, read-out: Anti-Angio IC50): 7.60
pIC50 ([1]; Homo sapiens, read-out: Anti-Angiogenesis): 7.60
pEC50 [2, 17]: < 5.00
pEC50 (INS-1E cells; [18]): < 4.70
pEC50 (NCI-H716 cells; [19]): < 5.00
pEC50 (HeLa cells; [23]): < 5.00
pIC50 (DLD-1; [20]): 5.80
pIC50 (DLD-1; [24]): 5.79
pIC50 (SW480; [21]): 5.55
pIC50 (SW480; [25]): 5.56
pIC50 (HCT116; [22]): 5.64
pIC50 (HCT116; [26]): 5.64
pIC50 [3, 27]: 6.44
pIC50 [3, 7]: 6.44

Clc1ccc(Nc2nnc(Cc3ccncc3)c3ccccc23)cc1 [vatalanib, reference compound]
pIC50 [1, 16]: 6.96
pIC50 [1, 8]: 6.96
activity in the Wnt potentiation module (in words) [2]: None of these agents, however, possessed appreciable activity
pEC50 [2, 17]: < 5.00
pEC50 (INS-1E cells; [18]): < 5.00
pEC50 (NCI-H716 cells; [19]): < 5.00
G2/M IC50 / EC50 (HeLa cells): 20 (values shown as 20 indicate that the compound was tested in concentration-response and showed no response at the highest concentration tested (e.g. IC50 > 20 μM))
pEC50 (HeLa cells; [11]): < 5.00
pIC50 (DLD-1; [20]): < 4.70
pIC50 (SW480; [21]): 4.71
pIC50 (SW480; [13]): 4.71
pIC50 (HCT116; [22]): < 4.70
pIC50 [3, 27]: 4.98
pIC50 [3, 15]: 4.98

Source: publication PMC4503722, “Novel Phenotypic Outcomes Identified for a Public Collection of Approved Drugs from a Publicly Accessible Panel of Assays” (PLoS ONE, 2015)
